Measured values taken from patent US7083933B1, “Methods for identification of modulators of OSGPR116 activity” (Prosidion Limited, priority 2003, dated 2006).

Legend:
OSGPR116 [1] = target: T1, OSGPR116 (Homo sapiens, UniProt Q8TDV5); assay: Adenylate cyclase (alpha-screen cAMP) assay in ASPC-1 cells endogenously expressing OSGPR116; format: cell-based; conditions: FIG. 11
T1 sequence (Q8TDV5 1-335): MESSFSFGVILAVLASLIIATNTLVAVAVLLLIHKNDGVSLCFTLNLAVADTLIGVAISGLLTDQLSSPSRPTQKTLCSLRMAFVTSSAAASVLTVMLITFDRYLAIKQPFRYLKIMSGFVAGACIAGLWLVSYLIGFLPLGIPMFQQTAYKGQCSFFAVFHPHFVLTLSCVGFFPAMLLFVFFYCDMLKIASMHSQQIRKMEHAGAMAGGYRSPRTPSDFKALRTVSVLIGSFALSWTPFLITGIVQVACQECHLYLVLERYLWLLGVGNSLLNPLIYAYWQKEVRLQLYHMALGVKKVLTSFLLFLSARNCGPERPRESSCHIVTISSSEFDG
Description: The adenylate cyclase assay was performed with an alpha-screen cAMP assay kit […]. The manufacturers protocol was followed. Briefly, ASPC-1 cells, known to endogenously express moderate levels of OSGPR116 were […] from the culture flask using a lysis buffer (0.1% BSA in PBS containing 20 μM rolipram and 0.54% TWEEN20), washed with PBS and diluted in assay buffer (0.1% BSA in PBS containing 20 μM rolipram) to a concentration of 600,000 cells/mL. White polystyrene 96-well plates were used for the assay. […] The plate was incubated at room temperature 30 min. For the standard cAMP curve used to quantify the data, 5 μl water+5 μl 4×cAMP in assay buffer+5 μl acceptor beads+5 μl cells were added to the plate. To terminate the assay, 10 ul of the donor beads solution was added (30 nM biotin-cAMP/60 μg streptavidin-donor beads in 1 mL lysis buffer). The plates were incubated overnight, protected from light. A Fusion-αHT counter was used to read the plates according to the kit's instructions.

[2] = target: T2, mouse homolog of OSGPR116 (Mus musculus, UniProt Q7TQP3); assay: Yeast cell-based Fus1p-LacZ reporter assay, mouse OSGPR116; conditions: mouse isoform, FIG. 9b; Galpha-q5 yeast, 4h incubation
T2 construct: expressed in transfected cells; host or cells: engineered yeast (GPA1 and Ste3 deleted, G-alpha chimera, Fus1p-LacZ reporters)
T2 sequence (Q7TQP3 1-335): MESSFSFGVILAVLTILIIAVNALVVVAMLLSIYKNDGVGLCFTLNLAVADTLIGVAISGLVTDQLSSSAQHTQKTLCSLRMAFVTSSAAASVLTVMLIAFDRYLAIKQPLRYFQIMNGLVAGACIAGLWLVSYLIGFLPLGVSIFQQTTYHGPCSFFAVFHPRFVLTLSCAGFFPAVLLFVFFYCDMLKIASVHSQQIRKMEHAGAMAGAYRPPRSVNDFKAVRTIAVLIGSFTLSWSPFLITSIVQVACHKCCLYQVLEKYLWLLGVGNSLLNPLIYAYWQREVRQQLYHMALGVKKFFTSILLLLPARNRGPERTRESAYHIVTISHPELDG
Source text: (§1) The yeast cell-based reporter assays have previously been described in the literature (e.g. see Miret J. J., et. al. (2002) J. Biol. Chem. 277:6881–6887; Campbell R. M., et. al. (1999) Bioorg Med. Chem. Lett. 9:2413–2418; King K., et. al. (1990) Science. 250:121–123); WO 99/14344; WO 00/12704; and U.S. Pat. No. 6,100,042). Briefly, yeast cells have been engineered such that the endogenous yeast G-alpha (GPA1) has been deleted and replaced with G-protein chimeras constructed using multiple techniques. Additionally the endogenous yeast alpha-cell GPCR, Ste3 has been deleted to allow for a […] expression of a mammalian GPCR of choice. In the yeast, elements of the pheromone signaling transduction pathway, which are conserved in eukaryotic cells (for example, the mitogen-activated protein kinase pathway), drive the expression of Fus1. By placing β-galactosidase (LacZ) under the control of the Fus1 promoter (Fus1p), a system has been developed whereby receptor activation leads to an enzymatic read-out. Different yeast strains (e.g. FIG. 10) denote the presence of different G-alpha chimeras (see “yeast reporter assays” in Results section below for definitions).
(§2) Yeast cells are transformed by an adaptation of the Lithium acetate method described by Agatep et.al. (Agatep, R., et. al. (1998) Transformation of Saccharomyces cerevisiae by the lithium acetate/single-stranded carrier DNA/polyethylene glycol (LiAc/ss-DNA/PEG) protocol. Technical Tips Online, Trends Journals, Elsevier). Briefly, yeast cells are grown overnight on yeast tryptone plates (YT). Carrier single-stranded DNA (10 μg), 2 μg of each of two Fus1p-LacZ reporter plasmids (one with URA selection marker and one with TRP), 2 μg of OSGPR116 in yeast expression vector (2μ origin of replication) and a lithium acetate/polyethylene glycol/TE buffer is pipetted into an Epindorf tube. The yeast expression plasmid containing the receptor/no receptor control has a LEU marker. Yeast cells are inoculated into this mixture and the reaction proceeds at 30° C. for 60 minutes. The yeast cells are then heat-shocked at 42° C. for 15 minutes. The cells are then washed and spread on selection plates. The selection plates are synthetic defined yeast media minus LEU, URA and TRP (SD-LUT). After incubating at 30° C. for 2–3 days, colonies that grow on the selection plates are then tested in the LacZ assay.
(§3) In order to perform fluorometric enzyme assays for β-galactosidase, yeast cells were grown overnight in liquid SD-LUT media to an unsaturated concentration (i.e. the cells are still dividing and have not yet reached stationary phase). They are diluted in fresh media to an optimal assay concentration and 90 μL of yeast cells were added to 96-well black polystyrene plates (Costar). Compounds, dissolved in ethanol and diluted in a 1% BSA solution to 10× concentration, were added to the plates and the yeast are placed at 30° C. for 4h. After 4h, the substrate for the β-galactosidase is added to each well. The substrate may yield a fluorescent or calorimetric read-out upon the activity of the β-galactosidase. In these experiments, Fluorescein di (β-D-galactopyranoside) was used (FDG), a substrate for the enzyme that releases fluorescein, allowing a fluorometric read-out. 20 μL of 500 uM FDG was used. After incubation of the cells with the substrate for 30–60 mins, 20 μL of 1M sodium carbonate is added to terminate the reaction and enhance the fluorescent signal. The plates were then read in a fluorometer at 485/535 nm. As an alternate read-out system, the yeast are also engineered with a Fus1p-HIS gene which means that activation of the receptor can also be measured through the growth of the yeast in a […] deficient media.

[3] = test system: vector transformed yeast cells; assay: Yeast reporter assay, vector transformed (no receptor) control yeast; format: cell-based
Source text: as §1, §2, §3

OSGPR116 [4] = target: T1, OSGPR116; assay: Yeast cell-based Fus1p-LacZ reporter assay, human OSGPR116; set-up: expressed in transfected cells; host or cells: engineered yeast (GPA1 and Ste3 deleted, G-alpha chimera, Fus1p-LacZ reporters); conditions: for rank of efficacy and potency among compounds tested: yeast-based reporter assay
Source text: as §1, §2, §3

OSGPR116 [5] = target: T1, OSGPR116; assay: Yeast reporter assay in strains with different G-alpha chimeras; format: cell-based; set-up: expressed in transfected cells; host or cells: yeast strains 13397, 13393, 15070, 18043, 20202, 10151 with different G-alpha chimeras; conditions: G-alpha-q (13397), G-alpha-i (13393, 15070, 18043), G-alpha-s (20202, 10151) strains; FIG. 10
Source text: The yeast cell-based reporter assays have previously been described in the literature (e.g. see Miret J. J., et. al. (2002) J. Biol. Chem. 277:6881–6887; Campbell R. M., et. al. (1999) Bioorg Med. Chem. Lett. 9:2413–2418; King K., et. al. (1990) Science. 250:121–123); WO 99/14344; WO 00/12704; and U.S. Pat. No. 6,100,042). Briefly, yeast cells have been engineered such that the endogenous yeast G-alpha (GPA1) has been deleted and replaced with G-protein chimeras constructed using multiple techniques. Additionally the endogenous yeast alpha-cell GPCR, Ste3 has been deleted to allow for a […] expression of a mammalian GPCR of choice. […] By placing β-galactosidase (LacZ) under the control of the Fus1 promoter (Fus1p), a system has been developed whereby receptor activation leads to an enzymatic read-out. […]
In order to perform fluorometric enzyme assays for β-galactosidase, yeast cells were grown overnight in liquid SD-LUT media to an unsaturated concentration (i.e. the cells are still dividing and have not yet reached stationary phase). […] The substrate may yield a fluorescent or calorimetric read-out upon the activity of the β-galactosidase. In these experiments, Fluorescein di (β-D-galactopyranoside) was used (FDG), a substrate for the enzyme that releases fluorescein, allowing a fluorometric read-out. […] The plates were then read in a fluorometer at 485/535 nm. […]

Wistar rats = assay: In vivo acute feeding experiment in fasted rats; set-up: species or system rat; conditions: overnight fasted Wistar rats, 1 and 2h post-treatment, FIG. 13
Description: For the acute feeding experiment, the experimental conditions used as closely as possible replicated those of de Fonseca, F. R. et.al. (2001) Nature, 414:209–212. […] Oleoylethanolamide (3 and 10 mg/kg i.p.) or vehicle was administered 15 minutes prior to the availability of food. Oleoylethanolamide was dissolved in dimethylsulfoxide (DMSO) and administered in a 70% DMSO in sterile water solution. Following presentation of food, food intake (grams) was measured at 1, 2, 3 and 4h intervals and the results compared to a normal feeding and vehicle treated control group.

Structure (SMILES): CCCCCCCC/C=C\CCCCCCCC(=O)NCCO [oleoyl ethanolamide]
- forskolin-stimulated cAMP accumulation (OSGPR116 [1]; 10 μM compound with forskolin (10 μM)): inhibition
- cAMP production (OSGPR116 [1]; 10 μM, without forskolin): did not cause an increase
- effect on fluorescence (β-galactosidase activity) in yeast transformed with OSGPR116 receptor [2]: increase in fluorescence
- response of vector controls in the same yeast strains ([3]; G-alpha chimera strains, FIG. 10): did not respond
- increase in fluorescence in vector transformed cells ([3]; yeast without OSGPR116 expression, FIGS. 9a, 9b): not
- effect on fluorescence (β-galactosidase activity) in yeast transformed with OSGPR116 receptor (OSGPR116 [4]; human isoform, FIG. 9a, Galpha-q5 yeast, 4h incubation): increase in fluorescence
- rank of efficacy and potency among compounds tested (OSGPR116 [4]; listed as Oleoyl ethanolamide): most efficacious and potent
- rank of efficacy and potency among compounds tested (OSGPR116 [4]; listed as oleoylethanolamide): optimal endogenously produced agonist
- response in OSGPR116-transformed yeast with G-alpha chimeras (OSGPR116 [5]): produce a response
- feeding (food intake) (Wistar rats; 3 mg/kg i.p.): inhibition of feeding
- feeding (food intake) (Wistar rats; 10 mg/kg i.p.): inhibition of feeding
